Laboratory results published in ChEMBL document CHEMBL1157700, “Synthesis of 3-[(N-carboalkoxy)ethylamino]-indazole-dione derivatives and their biological activities on human liver carbonyl reductase” (Bioorg Med Chem, 2010).

Test system: A549
Assay: Potentiation of daunorubicin-induced cytotoxicity against human A549 cells
Format: functional

## CNc1ncnc2c1c(-c1cccc(O)c1)cn2C(C)C
  Activity: 25%
